Results reported in patent US10442791B2, “DNA-PK inhibitors” (Vertex Pharmaceuticals Incorporated, priority 2012, dated 2019).

What was measured:
Type in all cases: cell-based
MCF7 = assay: Cell viability following irradiation (CellTiter-Glo), MCF7; conditions: MCF7 (Breast Cancer), viability at 6 days
Protocol: (§1) To evaluate the radiosensitizing effects of compounds of the invention in combination with ionizing radiation (IR), a broad panel of cell lines across multiple tumor types and genetic backgrounds were tested. Cells were incubated with DMSO or compound 578 for 30 minutes and then exposed to various doses of radiation (0, 0.5, 1, 2, 4, 6, 8, and 16 Gy). Cell viability was assessed at 6 days using CellTiter-Glo® (Promega, Inc).

LS411N = assay: Cell viability following irradiation (CellTiter-Glo), LS411N; conditions: LS411N (Colorectal Cancer), viability at 6 days
Protocol: as §1

U87MG = assay: Cell viability following irradiation (CellTiter-Glo), U87MG; conditions: U87MG (Glioblastoma), viability at 6 days
Protocol: as §1

Huh7 = assay: Cell viability following irradiation (CellTiter-Glo), Huh7; conditions: Huh7 (Hepatocellular Carcinoma), viability at 6 days
Protocol: as §1

SK-MEL-5 = assay: Cell viability following irradiation (CellTiter-Glo), SK-MEL-5; conditions: SK-MEL-5 (Melanoma), viability at 6 days
Protocol: as §1

Miapaca2 = assay: Cell viability following irradiation (CellTiter-Glo), Miapaca2; conditions: Miapaca2 (Pancreatic cancer), viability at 6 days
Protocol: as §1

PC3 = assay: Cell viability following irradiation (CellTiter-Glo), PC3; conditions: PC3 (Prostate Cancer), viability at 6 days
Protocol: as §1

EC50 IR (MCF7; compound 578 0.7 μM + IR): 4.9 Gy
EC50 IR (MCF7; compound 578 2.1 μM + IR): 3.3 Gy
EC50 IR (U87MG; compound 578 0.7 μM + IR): >16 Gy
EC50 IR (U87MG; compound 578 2.1 μM + IR): >16 Gy
EC50 IR (Huh7; compound 578 0.7 μM + IR): 1.3 Gy
EC50 IR (Huh7; compound 578 2.1 μM + IR): 0.8 Gy
EC50 IR (SK-MEL-5; compound 578 0.7 μM + IR): 2.7 Gy
EC50 IR (SK-MEL-5; compound 578 2.1 μM + IR): 2.3 Gy
EC50 IR (Miapaca2; compound 578 0.7 μM + IR): 2.4 Gy
EC50 IR (Miapaca2; compound 578 2.1 μM + IR): 1.9 Gy
EC50 IR (PC3; compound 578 0.7 μM + IR): 0.5 Gy
EC50 IR (PC3; compound 578 2.1 μM + IR): <0.5 Gy
SMILES: CNC(=O)c1ccnc2c([C@H](C)CNc3cc(-c4cnc(C)nc4)ncn3)cccc12 [Compound 578, (S)—N-methyl-8-(1-((2′-methyl-[4,5′-bipyrimidin]-6-yl)amino)propan-2-yl)quinoline-4-carboxamide]
EC50 IR (LS411N; compound 578 0.7 μM + IR): 2.3 Gy
EC50 IR (LS411N; compound 578 2.1 μM + IR): 1.9 Gy
